Data published in patent US9790228B2, “Heterocyclic kinase inhibitors” (Intellikine LLC, priority 2008, dated 2017).

How the values were obtained:
Type in all cases: biochemical
[1] = target: p110γ (Homo sapiens (Human), UniProt P48736); assay: PI3K γ inhibition assay (TLC lipid kinase or HTRF)
Description: (§1) Class I PI3-Ks can be either purchased (p110α/p85α, p110β/p85α, p110δ/p85α from Upstate, and p110γ from Sigma) or expressed as previously described (Knight et al., 2004). IC50 values are measured using either a standard TLC assay for lipid kinase activity (described below) or a high-throughput membrane capture assay. Kinase reactions are performed by preparing a reaction mixture containing kinase, inhibitor (2% DMSO final concentration), buffer (25 mM HEPES, pH 7.4, 10 mM MgCl2), and freshly sonicated phosphatidylinositol (100 μg/ml). Reactions are initiated by the addition of ATP containing 10 μCi of γ-32P-ATP to a final concentration 10 or 100 μM and allowed to proceed for 5 minutes at room temperature. For TLC analysis, reactions are then terminated by the addition of […] 1N HCl followed by 160 μl CHCl3:MeOH (1:1). The biphasic mixture is vortexed, briefly centrifuged, and the organic phase is transferred to a new tube using a gel loading pipette tip precoated with CHCl3. This extract is spotted on TLC plates and developed for 3-4 hours in a 65:35 solution of n-propanol:1M acetic acid. The TLC plates are then dried, exposed to a phosphorimager screen (Storm, Amersham), and quantitated. For each compound, kinase activity is measured at 10-12 inhibitor concentrations representing two-fold dilutions from the highest concentration tested (typically, 200 μM).
(§2) Other commercial kits or systems for assaying PI3-K activities are available. The commercially available kits or systems can be used to screen for inhibitors and/or agonists of PI3-Ks including but not limited to PI 3-Kinase α, β, δ, and γ. Anr exemplary system is PI3-Kinase (human) HTRF™ Assay from Upstate. […] Briefly, the assay is a time resolved FRET assay that indirectly measures PIP3 product formed by the activity of a PI3-K. The kinase reaction is performed in a microtitre plate (e.g., a 384 well microtitre plate). The total reaction volume is approximately 20 ul per well. In the first step, each well receives 2 ul of test compound in 20% dimethylsulphoxide resulting in a 2% DMSO final concentration. Next, approximately 14.5 ul of a kinase/PIP2 mixture (diluted in 1× reaction buffer) is added per well for a final concentration of 0.25-0.3 ug/ml kinase and 10 uM PIP2. The plate is sealed and incubated for 15 minutes at room temperature. To start the reaction, 3.5 ul of ATP (diluted in 1× reaction buffer) is added per well for a final concentration of 10 uM ATP. The plate is sealed and incubated for 1 hour at room temperature. The reaction is stopped by adding 5 ul of Stop Solution per well and then 5 ul of Detection Mix is added per well. The plate is sealed, incubated for 1 hour at room temperature, and then read on an appropriate plate reader. Data is analyzed and IC50s are generated using GraphPad Prism 5.

[2] = target: p110α/p85α (Homo sapiens (Human), UniProt P42336); assay: PI3K α inhibition assay (TLC lipid kinase or HTRF)
Description: as §1, §2

[3] = target: p110δ/p85α (Homo sapiens (Human), UniProt O00329); assay: PI3K δ inhibition assay (TLC lipid kinase or HTRF)
Description: as §1, §2

[4] = target: p110β/p85α (Homo sapiens, UniProt P42338); assay: PI3K β inhibition assay (TLC lipid kinase or HTRF); details: read-out: PI3K β IC50
Description: as §1, §2

p110β/p85α, sequence (P42338 whole entry, looked up): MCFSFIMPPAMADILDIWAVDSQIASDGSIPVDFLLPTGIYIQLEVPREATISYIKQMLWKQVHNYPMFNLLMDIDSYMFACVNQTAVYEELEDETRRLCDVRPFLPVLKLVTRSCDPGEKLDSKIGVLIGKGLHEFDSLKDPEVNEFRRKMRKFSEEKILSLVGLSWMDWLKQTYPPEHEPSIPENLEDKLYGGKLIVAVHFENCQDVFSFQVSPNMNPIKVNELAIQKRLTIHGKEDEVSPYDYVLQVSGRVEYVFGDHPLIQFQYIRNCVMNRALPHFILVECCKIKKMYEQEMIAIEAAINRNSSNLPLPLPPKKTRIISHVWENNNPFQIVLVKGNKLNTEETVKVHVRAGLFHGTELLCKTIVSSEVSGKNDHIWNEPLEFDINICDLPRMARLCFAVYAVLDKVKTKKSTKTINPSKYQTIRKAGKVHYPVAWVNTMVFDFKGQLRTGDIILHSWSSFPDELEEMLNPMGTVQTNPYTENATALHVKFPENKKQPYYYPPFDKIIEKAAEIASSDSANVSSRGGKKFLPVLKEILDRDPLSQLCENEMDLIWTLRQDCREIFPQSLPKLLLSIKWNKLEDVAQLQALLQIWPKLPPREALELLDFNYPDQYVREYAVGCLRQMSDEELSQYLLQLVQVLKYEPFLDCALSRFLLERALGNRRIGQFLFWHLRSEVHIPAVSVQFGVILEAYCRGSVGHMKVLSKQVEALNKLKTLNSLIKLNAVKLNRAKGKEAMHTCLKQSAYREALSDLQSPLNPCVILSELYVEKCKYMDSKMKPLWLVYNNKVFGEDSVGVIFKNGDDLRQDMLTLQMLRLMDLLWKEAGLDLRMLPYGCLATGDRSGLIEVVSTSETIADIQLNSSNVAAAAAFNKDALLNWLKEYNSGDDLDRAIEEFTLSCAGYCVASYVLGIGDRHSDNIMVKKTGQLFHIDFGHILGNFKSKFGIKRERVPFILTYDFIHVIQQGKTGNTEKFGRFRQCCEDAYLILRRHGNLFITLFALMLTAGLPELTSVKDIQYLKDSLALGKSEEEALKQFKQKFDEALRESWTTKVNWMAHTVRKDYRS
p110γ, sequence (P48736 whole entry): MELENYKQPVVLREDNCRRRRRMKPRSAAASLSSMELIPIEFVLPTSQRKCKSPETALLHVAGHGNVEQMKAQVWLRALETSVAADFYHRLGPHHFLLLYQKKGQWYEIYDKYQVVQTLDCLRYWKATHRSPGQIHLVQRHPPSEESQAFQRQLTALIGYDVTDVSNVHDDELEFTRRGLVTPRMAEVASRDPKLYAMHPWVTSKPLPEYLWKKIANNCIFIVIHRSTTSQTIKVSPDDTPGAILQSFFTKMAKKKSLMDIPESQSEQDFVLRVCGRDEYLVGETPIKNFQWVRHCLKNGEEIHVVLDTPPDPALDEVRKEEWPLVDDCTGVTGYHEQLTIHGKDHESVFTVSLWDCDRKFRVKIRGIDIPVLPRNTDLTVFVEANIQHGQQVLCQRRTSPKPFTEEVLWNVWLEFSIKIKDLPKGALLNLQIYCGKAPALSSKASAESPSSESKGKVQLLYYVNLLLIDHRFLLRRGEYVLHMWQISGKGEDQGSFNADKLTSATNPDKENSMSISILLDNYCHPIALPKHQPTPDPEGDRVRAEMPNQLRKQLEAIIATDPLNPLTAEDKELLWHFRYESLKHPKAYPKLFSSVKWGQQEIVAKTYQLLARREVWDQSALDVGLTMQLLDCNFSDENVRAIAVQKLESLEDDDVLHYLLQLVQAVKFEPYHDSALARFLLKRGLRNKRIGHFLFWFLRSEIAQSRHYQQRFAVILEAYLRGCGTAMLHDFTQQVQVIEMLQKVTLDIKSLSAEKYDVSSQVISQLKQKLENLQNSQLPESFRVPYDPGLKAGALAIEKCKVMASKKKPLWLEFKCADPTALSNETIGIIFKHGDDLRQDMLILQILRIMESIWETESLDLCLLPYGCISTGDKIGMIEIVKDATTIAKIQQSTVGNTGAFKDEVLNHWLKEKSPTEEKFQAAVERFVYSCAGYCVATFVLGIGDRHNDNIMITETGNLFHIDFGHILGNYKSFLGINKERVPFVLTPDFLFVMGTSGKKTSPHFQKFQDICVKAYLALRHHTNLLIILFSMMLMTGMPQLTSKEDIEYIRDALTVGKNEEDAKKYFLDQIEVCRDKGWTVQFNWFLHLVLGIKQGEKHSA
p110α/p85α, sequence (P42336 whole entry): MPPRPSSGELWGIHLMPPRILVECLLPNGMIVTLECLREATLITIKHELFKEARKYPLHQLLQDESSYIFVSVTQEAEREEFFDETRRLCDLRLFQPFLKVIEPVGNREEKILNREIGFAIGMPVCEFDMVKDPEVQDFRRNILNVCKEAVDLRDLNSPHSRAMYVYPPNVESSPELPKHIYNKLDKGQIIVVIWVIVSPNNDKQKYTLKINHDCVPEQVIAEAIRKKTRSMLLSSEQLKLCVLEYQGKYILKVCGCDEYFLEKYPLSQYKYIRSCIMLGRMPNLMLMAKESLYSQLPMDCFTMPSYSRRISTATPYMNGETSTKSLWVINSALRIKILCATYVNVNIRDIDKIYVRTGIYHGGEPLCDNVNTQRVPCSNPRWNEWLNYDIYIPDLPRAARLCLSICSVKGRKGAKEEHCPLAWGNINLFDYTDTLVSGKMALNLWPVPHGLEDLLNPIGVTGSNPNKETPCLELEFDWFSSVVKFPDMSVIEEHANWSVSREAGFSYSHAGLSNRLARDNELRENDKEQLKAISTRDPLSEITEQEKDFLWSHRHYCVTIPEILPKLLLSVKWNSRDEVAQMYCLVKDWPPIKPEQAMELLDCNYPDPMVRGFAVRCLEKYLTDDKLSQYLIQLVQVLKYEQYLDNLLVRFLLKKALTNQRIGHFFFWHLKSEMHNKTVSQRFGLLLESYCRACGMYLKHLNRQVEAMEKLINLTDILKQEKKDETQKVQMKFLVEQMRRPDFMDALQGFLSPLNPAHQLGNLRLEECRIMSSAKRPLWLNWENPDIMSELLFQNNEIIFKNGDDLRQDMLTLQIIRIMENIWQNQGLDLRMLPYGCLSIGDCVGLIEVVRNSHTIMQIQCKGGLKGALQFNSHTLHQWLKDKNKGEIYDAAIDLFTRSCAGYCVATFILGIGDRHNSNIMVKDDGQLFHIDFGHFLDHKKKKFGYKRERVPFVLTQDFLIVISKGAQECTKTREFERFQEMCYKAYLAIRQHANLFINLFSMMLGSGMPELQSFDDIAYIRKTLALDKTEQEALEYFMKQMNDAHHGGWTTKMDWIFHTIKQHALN
p110α/p85α, sequence (P27986 whole entry partner): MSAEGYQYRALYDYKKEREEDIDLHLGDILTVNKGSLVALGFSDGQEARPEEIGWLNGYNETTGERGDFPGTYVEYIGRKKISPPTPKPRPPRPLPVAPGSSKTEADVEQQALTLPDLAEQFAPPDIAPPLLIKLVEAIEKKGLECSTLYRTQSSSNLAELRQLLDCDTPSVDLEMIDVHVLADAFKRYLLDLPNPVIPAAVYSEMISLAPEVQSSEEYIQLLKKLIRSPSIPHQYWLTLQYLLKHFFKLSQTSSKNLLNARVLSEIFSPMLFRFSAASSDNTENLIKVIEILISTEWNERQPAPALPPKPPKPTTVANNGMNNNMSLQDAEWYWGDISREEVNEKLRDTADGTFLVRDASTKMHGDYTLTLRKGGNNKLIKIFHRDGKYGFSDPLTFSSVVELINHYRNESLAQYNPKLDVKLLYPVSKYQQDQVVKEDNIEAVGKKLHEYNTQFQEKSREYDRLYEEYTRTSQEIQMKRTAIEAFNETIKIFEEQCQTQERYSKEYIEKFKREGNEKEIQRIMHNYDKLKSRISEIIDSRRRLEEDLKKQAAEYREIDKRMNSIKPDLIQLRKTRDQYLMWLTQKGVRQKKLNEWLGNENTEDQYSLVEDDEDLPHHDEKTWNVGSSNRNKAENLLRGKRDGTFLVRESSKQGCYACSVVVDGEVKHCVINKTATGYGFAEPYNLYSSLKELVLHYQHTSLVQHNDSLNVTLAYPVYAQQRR
p110δ/p85α, sequence (O00329 whole entry): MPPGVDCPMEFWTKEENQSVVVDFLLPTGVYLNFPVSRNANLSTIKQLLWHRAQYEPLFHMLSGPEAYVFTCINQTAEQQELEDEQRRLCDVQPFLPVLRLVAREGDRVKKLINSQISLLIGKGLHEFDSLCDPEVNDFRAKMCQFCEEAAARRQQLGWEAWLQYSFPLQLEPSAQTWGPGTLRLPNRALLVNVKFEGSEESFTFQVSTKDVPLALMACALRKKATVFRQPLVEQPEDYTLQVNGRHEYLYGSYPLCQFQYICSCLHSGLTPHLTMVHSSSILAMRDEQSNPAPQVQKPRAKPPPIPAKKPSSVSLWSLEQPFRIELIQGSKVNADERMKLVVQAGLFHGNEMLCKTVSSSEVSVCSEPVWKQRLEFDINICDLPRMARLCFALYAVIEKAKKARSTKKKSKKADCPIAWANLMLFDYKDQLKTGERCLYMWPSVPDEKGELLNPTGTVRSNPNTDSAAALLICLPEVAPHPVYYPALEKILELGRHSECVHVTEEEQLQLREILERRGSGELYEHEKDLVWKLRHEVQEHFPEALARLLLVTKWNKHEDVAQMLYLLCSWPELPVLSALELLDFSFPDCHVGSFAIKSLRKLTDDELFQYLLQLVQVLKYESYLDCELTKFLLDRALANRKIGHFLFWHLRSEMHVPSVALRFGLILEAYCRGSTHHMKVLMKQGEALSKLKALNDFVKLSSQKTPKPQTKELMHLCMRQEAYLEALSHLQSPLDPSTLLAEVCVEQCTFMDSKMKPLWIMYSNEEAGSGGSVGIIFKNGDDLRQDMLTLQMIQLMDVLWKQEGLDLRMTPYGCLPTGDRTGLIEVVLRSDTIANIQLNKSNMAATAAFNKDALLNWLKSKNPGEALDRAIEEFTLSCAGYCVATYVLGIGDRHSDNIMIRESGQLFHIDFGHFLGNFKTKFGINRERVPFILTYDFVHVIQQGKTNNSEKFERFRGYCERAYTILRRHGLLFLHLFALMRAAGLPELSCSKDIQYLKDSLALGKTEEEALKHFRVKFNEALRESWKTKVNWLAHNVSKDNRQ
p110δ/p85α, sequence (P27986 whole entry partner): as the sequence (P27986 whole entry partner) above

| SMILES | IC50 [1] [nM] | IC50 [2] [nM] | IC50 [3] [nM] | IC50 [4] [nM] |
| --- | --- | --- | --- | --- |
| C=Cc1nn(Cc2cc3ccccc3nc2-c2ccccc2F)c2ncnc(N)c12 [Compound 190] | > 1000 | > 1000 | > 1000 | > 1000 |
| NC1=NC=NC2C1C(c1ccc(O)nc1)=NN2Cc1cc2ccccc2nc1-c1ccccc1 (stereo not drawn) [Compound 162] |  | > 1000 |  | > 1000 |
| Cc1ccccc1-c1ncccc1Cn1nc(-c2cc(O)cc(F)c2)c2c(N)ncnc21 [Compound 121] |  |  | > 1000 |  |
| CCC(c1cc2ccccc2nc1-c1ccccc1)n1cnc2c(N)ncnc21 (stereo not drawn) [Compound 37] | > 1000 |  | > 1000 |  |
| CC(c1cc2ccccc2nc1N1CCCC1)n1cnc2c(N)ncnc21 (stereo not drawn) [Compound 35] | > 1000 |  | > 1000 |  |
| Nc1ncnc2c1c(-c1cc(O)cc(F)c1)nn2Cc1cc2ccccc2nc1-c1ccccc1 [Compound 149] |  |  |  | > 1000 |
| Nc1cc(-c2nn(Cc3cc4ccccc4nc3-c3ccccc3)c3ncnc(N)c23)ccn1 [Compound 173] |  | > 1000 | > 1000 | > 1000 |
| Nc1ncnc2c1c(-c1ccccc1O)nn2Cc1cc2ccccc2nc1N1CCCC1 [Compound 21] |  |  | > 1000 |  |
| CN(C)c1ncccc1Cn1nc(-c2cc(O)cc(F)c2)c2c(N)ncnc21 [Compound 125] |  |  | > 1000 |  |
| Nc1ncnc2c1c(-c1ccnc(O)c1)nn2Cc1cc2ccccc2nc1-c1ccccc1 [Compound 178] |  | > 1000 | > 1000 | > 1000 |
| Nc1ncnc2c1c(-c1cccc(O)c1)nn2Cc1cccnc1N1CCCC1 [Compound 123] |  |  | > 1000 |  |
| Nc1ncnc2c1c(-c1cccc(O)c1)nn2Cc1cc2c(nc1-c1ccccc1F)CCC2 [Compound 102] |  |  | > 1000 |  |
| C[C@@H](O)C#Cc1nc2ccccc2nc1Cn1nc(C#C[C@@H](C)O)c2c(N)ncnc21 [Compound 103] | > 1000 |  | > 1000 |  |
| CC(=O)Nc1nc2ccc(-c3nn(Cc4cc5ccccc5nc4N4CCN(C(C)C)CC4)c4ncnc(N)c34)cc2s1 [Compound 163] |  | 100 to 1000 |  | < 100 |
| CC(=O)Nc1cccc(-c2nn(Cc3cc4ccccc4nc3N3CCCC3)c3ncnc(N)c23)c1 [Compound 27] |  |  | > 1000 |  |
| CN(C)c1ncccc1Cn1nc(-c2cccc(O)c2)c2c(N)ncnc21 [Compound 122] |  |  | > 1000 |  |

| SMILES | IC50 [1] [nM] | IC50 [2] [nM] | IC50 [3] [nM] | IC50 [4] [nM] |
| --- | --- | --- | --- | --- |
| Nc1ncnc2c1c(-c1cc(F)ccc1O)nn2Cc1cc2ccccc2nc1N1CCCC1 [Compound 22] |  |  | > 1000 |  |
| Nc1ncnc2c1c(-c1ccc(O)nc1)nn2Cc1cc2ccccc2nc1-c1ccccc1F [Compound 161] |  | > 1000 |  | > 1000 |
| Nc1ncnc2c1c(-c1cc(O)cc(F)c1)nn2CCn1c(-c2ccccc2)nc2ccccc21 [Compound 126] |  |  | > 1000 |  |
| C[C@@H](O)C#Cc1nn(Cc2cc3ccccc3nc2N2CCN(C)CC2)c2ncnc(N)c12 [Compound 51] |  |  | > 1000 |  |
| CC(=O)Nc1nc2ccc(-c3nn(Cc4cc5ccccc5nc4N4CCCC4)c4ncnc(N)c34)cc2s1 [Compound 24] |  | 100 to 1000 |  |  |
| Cc1ccccc1-c1ncccc1Cn1nc(-c2cccc(O)c2)c2c(N)ncnc21 [Compound 120] |  |  | > 1000 |  |
| Nc1ncnc2c1c(I)nn2Cc1cc2c(nc1-c1ccccc1F)CCC2 [Compound 100] |  |  | > 1000 |  |
| NC(=O)c1cccc(-c2nn(Cc3cc4ccccc4nc3N3CCCC3)c3ncnc(N)c23)c1 [Compound 28] |  |  | > 1000 |  |
| Nc1ncnc2c1c(-c1ccnc(O)c1)nn2Cc1cc2ccccc2nc1-c1ccccc1F [Compound 177] |  | > 1000 | > 1000 | > 1000 |
| CC1CCCN1c1nc2ccccc2cc1Cn1ncc2c(N)ncnc21 (stereo not drawn) [Compound 188] |  | > 1000 | > 1000 | > 1000 |
| CCC(c1cc2ccccc2nc1N1CCCC1)n1cnc2c(N)ncnc21 (stereo not drawn) [Compound 36] | > 1000 |  | > 1000 |  |
| CN1CCN(c2nc3ccccc3cc2Cn2nc(-c3cc(O)cc(F)c3)c3c(N)ncnc32)CC1 [Compound 197] |  |  |  | 100 to 1000 |
| CC(C)N1CCN(c2nc3ccccc3cc2Cn2nc(-c3ccc4nc(N)sc4c3)c3c(N)ncnc32)CC1 [Compound 164] |  | < 100 |  | < 100 |
| N#Cc1nn(Cc2cc3ccccc3nc2-c2ccccc2F)c2ncnc(N)c12 [Compound 189] |  | > 1000 | > 1000 | > 1000 |
| COc1ccccc1-c1nc2ccccc2cc1Cn1nc(C#C[C@@H](C)O)c2c(N)ncnc21 [Compound 18] |  |  | > 1000 |  |
| Nc1cc(-c2nn(Cc3cc4ccccc4nc3-c3ccccc3F)c3ncnc(N)c23)ccn1 [Compound 172] |  | > 1000 | > 1000 | > 1000 |

Continued, values first:

| IC50 [1] [nM] | IC50 [2] [nM] | IC50 [3] [nM] | IC50 [4] [nM] | SMILES |
| --- | --- | --- | --- | --- |
| > 1000 | > 1000 | 100 to 1000 | > 1000 | CC(Nc1ncnc2[nH]cnc12)c1cc2ccccc2nc1N1CCCC1 (stereo not drawn) [Compound 88] |
| 100 to 1000 | > 1000 | < 100 | 100 to 1000 | CCc1nc2ccccc2cc1Cn1nc(-c2cc(O)cc(F)c2)c2c(N)ncnc21 [Compound 97] |
|  |  | > 1000 |  | Nc1ncnc2c1c(-c1cc(O)cc(F)c1)nn2Cc1cccnc1N1CCCC1 [Compound 124] |
| > 1000 | > 1000 | 100 to 1000 | > 1000 | NC(=O)/C=C/c1nn(Cc2cc3ccccc3nc2-c2ccccc2F)c2ncnc(N)c12 [Compound 194] |
| > 1000 | > 1000 | 100 to 1000 | > 1000 | CCn1c(=O)c(Cn2nc(-c3cccc(O)c3)c3c(N)ncnc32)cc2ccccc21 [Compound 115] |
| > 1000 | > 1000 | < 100 | > 1000 | CCC(Nc1ncnc2[nH]cnc12)c1cc2ccccc2nc1N1CCN(C)CC1 (stereo not drawn) [Compound 95] |
| > 1000 | > 1000 | < 100 | > 1000 | Nc1ncnc2c1c(-c1cc(O)cc(F)c1)nn2Cc1cc2ccccc2[nH]c1=O [Compound 114] |
| > 1000 | > 1000 | 100 to 1000 | > 1000 | CCC(c1cc2ccccc2nc1N1CCN(C)CC1)n1cnc2c(N)ncnc21 (stereo not drawn) [Compound 90] |
| > 1000 | > 1000 | < 100 | > 1000 | CCn1c(=O)c(Cn2nc(-c3cc(O)cc(F)c3)c3c(N)ncnc32)nc2ccccc21 [Compound 117] |
| > 1000 | > 1000 | < 100 | > 1000 | CCn1c(=O)c(Cn2nc(-c3cc(O)cc(F)c3)c3c(N)ncnc32)cc2ccccc21 [Compound 113] |
| > 1000 |  | 100 to 1000 |  | C[C@@H](O)C#Cc1nn(Cc2nc3ccccc3nc2N2CCCC2)c2ncnc(N)c12 [Compound 106] |
|  |  | < 100 |  | C[C@@H](O)C#Cc1nn(Cc2cc3ccccc3nc2N2CCCC2)c2ncnc(N)c12 [Compound 41] |
| > 1000 |  | 100 to 1000 |  | CN1CCN(c2nc3ccccc3cc2Cn2nc(I)c3c(N)ncnc32)CC1 [Compound 44] |
| 100 to 1000 |  | 100 to 1000 |  | Nc1ncnc2c1c(-c1cccnc1)nn2Cc1cc2ccccc2nc1N1CCCC1 [Compound 62] |
|  |  | 100 to 1000 |  | COc1ccccc1-c1nc2ccccc2cc1Cn1nc(-c2cccc(O)c2)c2c(N)ncnc21 [Compound 14] |
|  |  | 100 to 1000 |  | Nc1ncnc2c1c(-c1cc(O)cc(F)c1)nn2Cc1cc2ccccc2nc1NC1CCCC1 [Compound 33] |
| 100 to 1000 | > 1000 | 100 to 1000 |  | CC(=O)Nc1nc2ccc(-c3nn(Cc4cc5ccccc5nc4-c4ccccc4F)c4ncnc(N)c34)cc2[nH]1 [Compound 183] |
| 100 to 1000 |  | 100 to 1000 |  | Nc1ncnc2c1c(-c1cccc3[nH]ncc13)nn2Cc1cc2ccccc2nc1N1CCCC1 [Compound 58] |
|  | > 1000 | 100 to 1000 | > 1000 | Nc1ncc(-c2nn(Cc3cc4ccccc4nc3-c3ccccc3)c3nccc(N)c23)cn1 [Compound 160] |
| > 1000 |  | 100 to 1000 |  | CCC(Nc1ncnc2[nH]cnc12)c1cc2ccccc2nc1N1CCCC1 (stereo not drawn) [Compound 53] |
